{"source": "patent US20230093684A1", "about": "“STIMULI - OR BIO- RESPONSIVE COPOLYMERS, THE POLYMERSOMES COMPRISING THE SAME AND THEIR USE IN DRUG DELIVERY” (CENTRE NATIONAL DE LA RECHERCHE SCIENTIFIQUE, priority 2019, published 2023)", "assay": "Glutathione (GSH)-triggered doxorubicin release followed by fluorescence", "format": "physicochemical", "conditions": "Dox solution in brine 0.9% + GSH 10 mM", "description": "Release of the encapsulated compound: The amount of released dye was followed at RT by fluorescence spectroscopy (Hitachi F7000 spectrometer). […] The λex excitation wavelength was set at 480 nm and the emission λem spectra were recorded from 490 to 720 nm. The instrument was used in scan mode, with excitation slit set to 5 nm and emission slit set to 5 nm.\nThe liberation of doxorubicin was followed by monitoring the fluorescence. Fluorescence spectra were collected by excitation at λex=470 nm wavelength and reading at λem=600 nm. In order to quantify the encapsulated drug, a method for the quantitative liberation was needed. Different methods, such as solvolysis, photolysis, addition of redox agents (sodium dithionite, mercaptoethanol, sodium thiosulfate, glutathione) were tested and are discussed as follows.\nIn parallel, Quino-Ps-DOX (50 μL) was treated with the […] glutathione (GSH) in its reduced form, 1 μL at c=10 mM in brine (0.9% (v/w). The concentration of the GSH was set to 10 mM in order to be compatible with the highest intracellular level (FIG. 5).\nThe amount of the liberated drug was quantified by fluorescence (λex=470 nm and λem=600 nm), by using a calibration curve (FIG. 6) ([…] (R^2=0.9911)). […]"}
{"smiles": "COc1cccc2c1C(=O)c1c(O)c3c(c(O)c1C2=O)C[C@@](O)(C(=O)CO)C[C@@H]3O[C@H]1C[C@H](N)[C@H](O)[C@H](C)O1", "note": "[doxorubicin]", "values": [{"measurement": "fluorescence intensity of free doxorubicin treated with GSH (stability control)", "value": "no change in the fluorescence intensity"}]}
